Data taken from patent US8889876B2, “Histone deacetylase inhibitors and uses thereof” (Jiangsu Hengyi Pharmaceutical Co., Ltd., priority 2008, dated 2014).
≈ marks a conversion by molar mass, not a printed value.

What was measured:
histone deacetylase [1] = assay: in vitro inhibition activity on histone deacetylase (rat liver homogenate, MAL fluorescent substrate); assay type: biochemical, rats; details: n = 4, 37° C., 16 hours
Experimental: A 96-well plate (black) for determining […] is made by Costar Company of U.S. The histone deacetylase is obtained by homogenization of liver of rats. The histone deacetylase reacts with small molecular fluorescent substrate MAL such that the substrate MAL is deacetylated to become ML.
The compound to be detected is dissolved with 200 μL of DMSO. The stock solution of the compound to be detected is diluted with PBS to a concentration of the working solution. The histone deacetylase, the MAL fluorescent substrate and the compound to be detected are mixed in a water bath at 37° C. and reacted 16 hours. The final concentration of the compound to be detected is: MS275 and its similar compound: 10, 100 μmol/.
The reaction solution is extracted with ethyl acetate. The extract is pumped in vacuum and thereto added 110 μL of methanol (40%). Taking 50 μL/well to a 96-well plate and making a fluorescent detection at 325/390 nm.
The negative control wherein histone deacetylase is not added to the reaction is 100% inhibition. The control that only contains histone deacetylase without any inhibitor is the background (0% inhibition). The inhibition rate of the sample to be detected=(the detected fluorescent value−the background)/(the fluorescent value of the negative control−background)×100%
The inhibition rate and the standard deviation in the results are the average inhibition percentage and the standard deviation of each parallel well in each dosage group.

[2] = system: A549 (human lung adenocarcinoma cells); assay: MTT cytotoxicity to tumor cell strains, A549; assay type: cell-based; details: Homo sapiens, read-out: Cell activity (IC50, μg/ml) A549
Experimental: (§1) The cytotoxicity of samples to tumor cell strains is determined through MTT.

[3] = system: K562: human chronic myeloid leukemia cell strain; assay: MTT cytotoxicity to tumor cell strains, K562; assay type: cell-based; details: Homo sapiens, read-out: Cell activity (IC50, μg/ml) K562
Experimental: as §1

[4] = system: Hut 78 (T-cell Leukemia cell); assay: MTT cytotoxicity to tumor cell strains, Hut 78; assay type: cell-based; details: Homo sapiens, HuT78; Hut 78, MTT; read-out: Cell activity (IC50, μg/ml) Hut 78
Experimental: as §1

[5] = system: K562 human chronic myeloid leukemia cells; assay: CCK-8 proliferation inhibition, K562; assay type: cell-based; details: for inhibition at 10 µM / inhibition at 100 µM: Homo sapiens; for inhibition at 10 µM: K562, 10 μM; for inhibition at 100 µM: K562, 100 μM
How it was run: (§2)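 Compounds tested at two concentrations, 10 μM and 100 μM, with inhibition rates from CCK-8 viability read-out.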

[6] = system: PANC-1 human pancreatic cancer cells; assay: CCK-8 proliferation inhibition, PANC-1; assay type: cell-based; details: for inhibition at 10 µM / inhibition at 100 µM: Homo sapiens; for inhibition at 10 µM: PANC-1, 10 μM; for inhibition at 100 µM: PANC-1, 100 μM
How it was run: as §2

[7] = system: PC-3 human prostate cancer; assay: CCK-8 proliferation inhibition, PC-3; assay type: cell-based; details: CCK-8 method; for inhibition at 10 µM / inhibition at 100 µM: Homo sapiens
How it was run: as §2

[8] = system: A549 human lung cancer cells; assay: CCK-8 proliferation inhibition, A549; assay type: cell-based; details: CCK-8 method; for inhibition at 10 µM / inhibition at 100 µM: Homo sapiens, A549
How it was run: as §2

[9] = system: Jurkat E6-1 human T-cell lymphoma; assay: CCK-8 proliferation inhibition, Jurkat E6-1; assay type: cell-based; details: for inhibition at 10 µM / inhibition at 100 µM: Homo sapiens; for inhibition at 10 µM: Jurkat E6.1, 10 μM; for inhibition at 100 µM: Jurkat E6.1, 100 μM
How it was run: as §2

[10] = system: Hep3B2.1-7 human liver cancer cells; assay: CCK-8 proliferation inhibition, Hep3B2.1-7; assay type: cell-based; details: CCK-8 method; for inhibition at 10 µM / inhibition at 100 µM: Homo sapiens, Hep3B
How it was run: as §2

[11] = system: MDA-MB-435s human breast cancer cells; assay: CCK-8 proliferation inhibition, MDA-MB-435s; assay type: cell-based; details: CCK-8 method; for inhibition at 10 µM / inhibition at 100 µM: Homo sapiens, MDA-MB-435S
How it was run: as §2

[12] = system: Colo320 human rectal cancer cells; assay: CCK-8 proliferation inhibition, Colo320; assay type: cell-based; details: CCK-8 method; for inhibition at 10 µM / inhibition at 100 µM: Homo sapiens, COLO 320
How it was run: as §2

[13] = system: Hut78 T-cell Leukemia cell; assay: CCK-8 proliferation inhibition, Hut78; assay type: cell-based; details: for inhibition at 10 µM / inhibition at 100 µM: Homo sapiens, read-out: Hut-78 (inhibition %); for inhibition at 10 µM: HuT78, 10 μM; for inhibition at 100 µM: HuT78, 100 μM
How it was run: as §2

histone deacetylase [14] = assay: in vitro inhibition of histone deacetylase by HDAC inhibitor screening kit (Biovision K340-100); assay type: biochemical
Experimental: An assay for determining the in vitro inhibition activity of the compound on histone deacetylase is conducted according to the specification of HDAC inhibitor screeing kid (Biovision Company/Catalog #K340-100). […]

Row | Compound | inhibition at 10 µM [5] [%] | inhibition at 100 µM [5] [%] | inhibition at 10 µM [6] [%] | inhibition at 100 µM [6] [%] | inhibition at 10 µM ([7]; compound concentration 10 μM) [%] | inhibition at 100 µM ([7]; compound concentration 100 μM) [%] | inhibition at 10 µM ([8]; compound concentration 10 μM) [%] | inhibition at 100 µM ([8]; compound concentration 100 μM) [%] | inhibition at 10 µM [9] [%] | inhibition at 100 µM [9] [%] | inhibition at 10 µM ([10]; compound concentration 10 μM) [%] | inhibition at 100 µM ([10]; compound concentration 100 μM) [%] | inhibition at 10 µM ([11]; compound concentration 10 μM) [%] | inhibition at 100 µM ([11]; compound concentration 100 μM) [%] | inhibition at 10 µM ([12]; compound concentration 10 μM) [%] | inhibition at 100 µM ([12]; compound concentration 100 μM) [%] | inhibition at 10 µM [13] [%] | inhibition at 100 µM [13] [%] | Inhibition rate(%) (histone deacetylase [14]; 3.91 μM) | Inhibition rate(%) (histone deacetylase [14]; 62.5 μM) | also measured
1 | Nc1ccccc1CNC(=O)c1ccc(CNC(=O)OCc2cccnc2)cc1 [V-1, N-(2-aminobenzyl)-4-[(3-pyridylmethoxyacyl)aminomethyl]benzamide] |  |  |  |  |  |  |  |  |  |  |  |  |  |  |  |  |  |  |  |  | inhibition rate % average number (histone deacetylase [1]; dosage 10 μmol/L): 0.479%; inhibition rate % average number (histone deacetylase [1]; dosage 100 μmol/L): 0.293%; IC50 [2]: > 100 µg/mL; IC50 [3]: > 100 µg/mL; IC50 [4]: 12.5 µg/mL (≈ 32 µM)
2 | COc1cc(/C=C/C(=O)NCc2ccc(C(=O)Nc3cccnc3N)cc2)cc(OC)c1OC [V-34, N-(2-amino-3-pyridyl)-4-[(3,4,5-trimethoxycinnamoyl)aminomethyl]benzamide] | 12.8 | 61.2 | 9.2 | 4 | 7 | 40.2 | -7.4 | 6.2 | 4.7 | 52.7 | 1 | 28.1 | 21.5 | 42.9 | 7.3 | 5.9 | 9.9 | 53.1 |  |  | IC50 [2]: > 100 µg/mL; IC50 [3]: > 100 µg/mL; IC50 [4]: 68.5 µg/mL (≈ 148 µM)
3 | Nc1ncccc1NC(=O)c1ccc(CNC(=O)/C=C/c2ccc([N+](=O)[O-])cc2)cc1 [V-36, N-(2-amino-3-pyridyl)-4-[(4-nitrocinnamoyl)aminomethyl]benzamide] | 34.1 | 64.8 | 20.8 | 39.5 | -9.4 | 22.1 | 2.4 | 12 | 12.5 | 83.3 | 11.3 | 40.6 | 30.8 | 61.2 | 7.9 | 14.1 | 8.1 | 60 |  |  | IC50 [2]: > 100 µg/mL; IC50 [3]: > 100 µg/mL; IC50 [4]: 17.1 µg/mL (≈ 40.9 µM)
4 | COc1ccc(/C=C/C(=O)NCc2ccc(C(=O)Nc3cccnc3N)cc2)cc1OC [V-93, N-(2-amino-3-pyridyl)-4-[(3,4-dimethoxycinnamoyl)aminomethyl]benzamide] | 23.7 | 67.3 | 9.8 | 16.6 | 41.6 | 80.6 | -2.5 | 3.4 | 23.4 | 93.1 | 4.9 | 26.8 | 16.3 | 48.5 | 6.1 | 13.1 | 27.2 | 64.7 | 14.3 | 48.0 | Inhibition rate(%) (histone deacetylase [14]; 2 mM): 55.3%
5 | COc1cccc(COC(=O)NCc2ccc(C(=O)Nc3ccncc3N)cc2)c1 [V-95] | 50.6 | 71.9 | 7 | 48.7 | 30.6 | 80 | -12.6 | 48.3 | 21.6 | 93.8 | 16.7 | 72 | 4.2 | 72.5 | -1.9 | 68.8 | 8 | 58 | 17.2 | 46.7 | Inhibition rate(%) (histone deacetylase [14]; 2 mM): 90.6%
6 | COc1ccc(COC(=O)NCc2ccc(C(=O)Nc3ccncc3N)cc2)cc1OC [V-96] | 41.1 | 61.6 | -0.4 | 64.8 | 27.8 | 53.3 | -6.2 | 33.4 | 15.4 | 83.4 | -0.9 | 35.2 | 1.9 | 69.6 | -0.8 | 27 | -0.4 | 41.7 | 14.0 | 42.2 | Inhibition rate(%) (histone deacetylase [14]; 2 mM): 85.0%
7 | N-(2-amino-3-pyridyl)-4-[(4-methoxybenzyloxyacyl)aminomethyl]benzamide [V-11] |  |  |  |  |  |  |  |  |  |  |  |  |  |  |  |  |  |  | 6.5 | 22.1 | K562 (inhibition %) ([5]; 10 μM): 29.7%; K562 (inhibition %) ([5]; 100 μM): 82.6%; PANC-1 (inhibition %) ([6]; 10 μM): 1.1%; PANC-1 (inhibition %) ([6]; 100 μM): 35.2%; PC-3 (inhibition %) ([7]; compound concentration 10 μM): 8.1%; PC-3 (inhibition %) ([7]; compound concentration 100 μM): 49.8%; A549 (inhibition %) ([8]; compound concentration 10 μM): −7.4%; A549 (inhibition %) ([8]; compound concentration 100 μM): 24.9%; Jurkat E6-1 (inhibition %) ([9]; 10 μM): 26.4%; Jurkat E6-1 (inhibition %) ([9]; 100 μM): 91.0%; Hep3B (inhibition %) ([10]; compound concentration 10 μM): 8.1%; Hep3B (inhibition %) ([10]; compound concentration 100 μM): 53.2%; Inhibition rate(%) (histone deacetylase [14]; 2 mM): 39.2%; 435s(inhibition %) ([11]; compound concentration 10 μM): −16.5%; 435s(inhibition %) ([11]; compound concentration 100 μM): 85.4%; Colo320 (inhibition %) ([12]; compound concentration 10 μM): 8.9%; Colo320 (inhibition %) ([12]; compound concentration 100 μM): 48.5%; Hut-78 (inhibition %) ([13]; 10 μM): 10.7%; Hut-78 (inhibition %) ([13]; 100 μM): 60.3%
